The test system of one test is JNK. Kind of test: JNK Activation Assay in Panc-1 (western blot). The format is cell-based, Human. Also noted: key: Y = yes; N = No. Conditions: at 10 μM. As for the experimental part:
Cell lines: Human tumor-derived pancreatic cancer cell line Panc-1 and mouse muscle myoblast C2C12 were purchased from American Type Culture Collection and grown in complete DMEM-High Glucose, supplemented with penicillin (100 U/mL), streptomycin (100 μg/mL), and 10% heat-inactivated FBS at 37° C. in a humidified incubator with 5% CO2.
Method: Cells were plated at 350000 cells/well density in a 12-well plate, allowed 3 hours to adhere to the plate, then starved in the appropriate medium in the presence of 0.5% FBS overnight. The small molecules to be tested were added to the cells in the final concentration of 10 μM in the presence of 0.3% DMSO for 3 hours incubation at 37° C. For IC50 value determination, serial dilutions of compounds were added to cells under the same conditions. Next, Panc-1 cells were stimulated with 10 ng/ml TGF-b1 for 1 hour, and C2C12 cells were stimulated with 10 ng/ml TGF-b1 for 20 minutes (recombinant human TGF-b1, R&D Systems). After stimulation cells were lysed with lysis buffer containing 1% Triton X-100, EDTA, and Halt™ Protease & Phosphatase Inhibitor Cocktail (Thermo Scientific). Protein concentration was assessed by BCA protein assay (Thermo Scientific). Phosphorylation level of JNK was determined by western blot.
Western blot protocol: Equal amounts of protein (15-50 μg) were separated by SDS-PAGE and transferred to nitrocellulose membranes (Invitrogen by Thermo Fisher Scientific). The membrane was stained with Ponceau S Stain (Boston BioProducts) to verify uniform protein loading. Membranes were blocked with 10% milk and phosphorylation levels of Smad2, Smad3, INK and p38 were assessed by incubating overnight at 4° C. with the following antibody: Phospho-SAPK/JNK (Thr183/Tyr185), from Cell Signaling Technology. Then the membranes were incubated with HRP-conjugated secondary antibody (Jackson Immunoresearch, West Grove, PA). Bands were incubated in Amersham ECL Prime Western Blotting Detection Reagent (GE Healthcare) and visualized using the ChemiDoc MP imaging system (Bio-Rad).
For orientation: Immunoblotting shows a protein as a band on a membrane.

The next test concerns the target KRas wild type (Homo sapiens (Human), UniProt P01116). In words: Ras GTP Binding Domain Inhibition Assay, KRas wild type. As for the experimental part: (§1) A Ras Superfamily Activity Assay (as disclosed in International Application No. PCT/US2018/038613, filed Jun. 20, 2018, which is incorporated by reference in its entirety) was used as a specific assay to evaluate compounds against the following for the following Ras Superfamily proteins: KRas wild type, KRas Q61H mutant, KRas G12C mutant, KRas G12D mutant, Rac-1, and Rho-A.
(§2) Buffer-I: • 25 mM Tris-HCl, pH 7.4 • 27 mM KCl • 137 mM NaCl • 1 mM MgCl2 • 1 mM DTT
(§3) Buffer-II: • 50 mM Tris-HCl, pH 7.0 • 1 mM MgCl2 • 1 mM DTT
(§4) The small GTPases proteins: KRas wild type. KRas Q61H mutant, KRas G12C mutant, KRas G12D mutants, Rac-1, and Rho-A were expressed as His-tagged proteins. In addition, the Guanosine nucleotide Exchange Factor (GEF) Sos protein (residues 556-1049) was expressed as a His-tagged protein. In cells, the guanine nucleotide exchange factor Sos protein promotes activation of Ras proteins by stimulating an exchange of GDP for GTP. The inclusion of Sos to the Ras GTP binding domain inhibition assay may be considered as an alternative representation of physiological cellular conditions for evaluating the inhibitory activity of some of the tested small molecules.
(§5) For the assay, all purified small GTPases proteins were diluted in Buffer-I or Buffer-II to a final concentration of 10-30 μg/mL. 200 μL of each diluted protein was added to a nickel-coated 96-well plate and incubated overnight at 4° C. Then the protein solution was discarded and 200 μL of Buffer-I or Buffer-II was added to each well in the presence of 1% DMSO. Compounds to be tested were added to the protein-coated wells at final concentration of 20 μM, and incubated for 3 hours at room temperature with and without 10-30 μg/mL of Sos added to the final hour of the incubation. When performing IC50 measurements a serial dilution of all tested concentrations was added. Then Cy3-GTP or Cy5-GTP was added to each well to a final concentration of 100 nM. The labeled GTP was incubated for 45 minutes at room temperature. Following GTP incubation, wells were washed 3× in Buffer-I or Buffer-II and 200 μL of Buffer-I or Buffer-II was added to each well. Following washes, the amount of bound labeled-GTP was measured using a SpectraMax M3 (Molecular Devices).

A further test has as its target KRas G12D mutant (Homo sapiens (Human), UniProt P01116, G12D). In words: Ras GTP Binding Domain Inhibition Assay, KRas G12D mutant. Conditions: for inhibition at 20 µM: Table 7; for KRas G12D mutant + SOS: % inh. / KRas G12D mutant: % inh.: 20 uM, Table 8. The procedure: as §1, §2, §3, §4, §5
The next test concerns the target KRas G12C mutant (Homo sapiens (Human), UniProt P01116, G12C). In words: Ras GTP Binding Domain Inhibition Assay, KRas G12C mutant. The procedure:
as §1, §2, §3, §4, §5

Another test addresses Rho-A (Homo sapiens (Human), UniProt P61586). In words: Ras GTP Binding Domain Inhibition Assay, Rho-A. The procedure:
as §1, §2, §3, §4, §5

Where [1] appears, read: + SOS, read-out: KRas wild type + SOS: % inh.
Where [2] appears, read: without SOS, read-out: KRas wild type: % inh.
The mark [3] stands for this setting: + SOS, read-out: KRas G12D mutant + SOS: % inh.
The mark [4] stands for this setting: without SOS, read-out: KRas G12D mutant: % inh.
Where [5] appears, read: + SOS, read-out: KRas G12C mutant + SOS: % inh.
[6] abbreviates: without SOS, read-out: KRas G12C mutant: % inh.
The mark [7] stands for this setting: + SOS, read-out: Rho-A + SOS: % inh.
The mark [8] stands for this setting: without SOS, read-out: Rho-A: % inh.

Like-named read-outs stand apart in the source and are kept apart here.

Sequence of KRas wild type (P01116 other isoform, or with tags, fused parts or gaps): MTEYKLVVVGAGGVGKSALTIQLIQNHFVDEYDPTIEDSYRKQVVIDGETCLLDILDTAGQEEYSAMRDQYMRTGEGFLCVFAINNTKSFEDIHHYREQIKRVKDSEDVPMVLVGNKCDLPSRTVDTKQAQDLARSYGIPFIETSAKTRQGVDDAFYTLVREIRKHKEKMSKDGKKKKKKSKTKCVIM
Sequence of KRas G12D mutant (P01116 other isoform, or with tags, fused parts or gaps G12D): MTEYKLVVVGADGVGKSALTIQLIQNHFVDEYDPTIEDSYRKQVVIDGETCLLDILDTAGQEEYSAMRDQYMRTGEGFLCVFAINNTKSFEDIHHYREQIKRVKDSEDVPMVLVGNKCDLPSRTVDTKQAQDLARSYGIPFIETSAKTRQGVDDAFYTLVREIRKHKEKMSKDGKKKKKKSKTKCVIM
Sequence of Rho-A (P61586 whole entry, species assumed, the tested form may be a part): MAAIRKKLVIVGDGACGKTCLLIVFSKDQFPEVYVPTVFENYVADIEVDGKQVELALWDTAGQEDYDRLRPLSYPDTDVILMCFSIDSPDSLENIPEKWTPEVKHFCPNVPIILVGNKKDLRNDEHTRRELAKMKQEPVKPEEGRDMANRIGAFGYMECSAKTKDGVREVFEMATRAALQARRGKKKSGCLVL
Sequence of KRas G12C mutant (P01116 other isoform, or with tags, fused parts or gaps G12C): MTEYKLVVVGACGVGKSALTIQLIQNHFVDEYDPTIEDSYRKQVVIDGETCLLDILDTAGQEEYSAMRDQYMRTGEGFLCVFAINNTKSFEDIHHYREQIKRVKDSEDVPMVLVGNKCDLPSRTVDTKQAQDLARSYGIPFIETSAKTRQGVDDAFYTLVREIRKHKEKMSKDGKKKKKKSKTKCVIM

Regarding `COc1cccc(-c2sc3nc(-c4nccn4C)nc(NC4CCC(OC)C4)c3c2C)c1F` (racemic) [Compound 10, rac-6-(2-Fluoro-3-methoxyphenyl)-N-((1R,3S)-3-methoxycyclopentyl)-5-methyl-2-(1-methyl-1H-imidazol-2-yl)thieno[2,3-d]pyrimidin-4-amine and rac-6-(2-Fluoro-3-methoxyphenyl)-N-((1R,3R)-3-methoxycyclopentyl)-5-methyl-2-(1-methyl-1H-imidazol-2-yl)thieno[2,3-d]pyrimidin-4-amine], the “Activation of JNK in PANC-1” value in the test on JNK is “Y”. The inhibition at 20 µM at KRas wild type (setting [1]) lay within 46 to 75%; on KRas wild type (setting [2]) it was 46 to 75%; at KRas G12D mutant (setting [3]), 46 to 75%; at KRas G12D mutant (setting [4]), 76 to 100%; on KRas G12C mutant (setting [5]) it was 46 to 75%; on KRas G12C mutant (setting [6]) it was 76 to 100%. Besides, the inhibition at 20 µM at Rho-A (setting [7]) and at Rho-A (setting [8]) was 76 to 100% in each case. On KRas G12D mutant (+ SOS), the “KRas G12D mutant + SOS: % inh.” value was “C (C = 46-75% inhibition)”. In addition, the “KRas G12D mutant: % inh.” value at KRas G12D mutant (without SOS) was “D (D = 76-100% inhibition)”.

For `COCCn1ccc(-c2sc3nc(-c4nccn4C)nc(N[C@@H]4CC[C@H](OC)C4)c3c2C)n1` (racemic) [Compound 39, rac-N-((1R,3S)-3-Methoxycyclopentyl)-6-(1-(2-methoxyethyl)-1H-pyrazol-3-yl)-5-methyl-2-(1-methyl-1H-imidazol-2-yl)thieno[2,3-d]pyrimidin-4-amine], in the test on JNK, the “Activation of JNK in PANC-1” value is “Y”. Moreover, the inhibition at 20 µM at KRas wild type (setting [1]) fell in the range of 76 to 100%; on KRas wild type (setting [2]) it was 76 to 100%; at KRas G12D mutant (setting [3]), 76 to 100%; on KRas G12D mutant (setting [4]) it was 46 to 75%; at KRas G12C mutant (setting [5]), 76 to 100%; at KRas G12C mutant (setting [6]) it was 76 to 100%. Besides, the inhibition at 20 µM at Rho-A (setting [8]) is 46 to 75%. In addition, the “KRas G12D mutant + SOS: % inh.” value at KRas G12D mutant (+ SOS) is “D (D = 76-100% inhibition)”. The “KRas G12D mutant: % inh.” value at KRas G12D mutant (without SOS) is “C (C = 46-75% inhibition)”.

On to `COc1cccc(-c2sc3nc(-c4nccn4C)nc(N[C@@H]4CC[C@@H](OC)C4)c3c2-c2ccccc2)c1F` (racemic) [Compound 41, 6-(2-Fluoro-3-methoxyphenyl)-N-((1R,3R)-3-methoxycyclopentyl)-2-(1-methyl-1H-imidazol-2-yl)-5-phenylthieno[2,3-d]pyrimidin-4-amine], for which the “Activation of JNK in PANC-1” value in the test with JNK was “Y”. Besides, the inhibition at 20 µM at KRas wild type (setting [1]) was in the range of 76 to 100%; at KRas wild type (setting [2]), 26 to 45%; on KRas G12D mutant (setting [3]), 46 to 75%; on KRas G12D mutant (setting [4]), 1 to 25%; on KRas G12C mutant (setting [5]), 76 to 100%; on KRas G12C mutant (setting [6]), 26 to 45%. The inhibition at 20 µM at Rho-A (setting [8]) came out at 0%. Moreover, the “KRas G12D mutant + SOS: % inh.” value on KRas G12D mutant (+ SOS) is listed as “C (C = 46-75% inhibition)”. Also, the “KRas G12D mutant: % inh.” value at KRas G12D mutant (without SOS) is reported as “A (A = 1-25% inhibition)”.

Turning to `COCCOc1nc(-c2nccn2C)nc2sc(-c3ccn(C(C)C)n3)c(C)c12` [Compound 30, 6-(1-Isopropyl-1H-pyrazol-3-yl)-4-(2-methoxyethoxy)-5-methyl-2-(1-methyl-1H-imidazol-2-yl)thieno[2,3-d]pyrimidine], the “Activation of JNK in PANC-1” value with JNK is “N”. Moreover, the inhibition at 20 µM is 0% at KRas wild type (setting [1]); 1 to 25% on KRas wild type (setting [2]); 0% at KRas G12D mutant (setting [3]); 0% on KRas G12D mutant (setting [4]); 0% on KRas G12C mutant (setting [5]); 1 to 25% at KRas G12C mutant (setting [6]). The inhibition at 20 µM at Rho-A (setting [8]) came to 0%. In addition, on KRas G12D mutant (+ SOS), the “KRas G12D mutant + SOS: % inh.” value is 0 (0 = 0% inhibition). In addition, the “KRas G12D mutant: % inh.” value at KRas G12D mutant (without SOS) is on record as 0 (0 = 0% inhibition).

For `CO[C@H]1CC[C@@H](Nc2nc(-c3nccn3C)nc3sc(-c4ccn(C(C)C)n4)c(C)c23)C1` (racemic) [Compound 12, rac-6-(1-Isopropyl-1H-pyrazol-3-yl)-N-((1R,3S)-3-methoxycyclopentyl)-5-methyl-2-(1-methyl-1H-imidazol-2-yl)thieno[2,3-d]pyrimidin-4-amine], the “Activation of JNK in PANC-1” value in the test on JNK is “Y”. For the same compound, the inhibition at 20 µM on KRas wild type (setting [1]) fell in the range of 76 to 100%; on KRas wild type (setting [2]), 76 to 100%; on KRas G12D mutant (setting [3]) it was 46 to 75%; on KRas G12D mutant (setting [4]) it was 46 to 75%; on KRas G12C mutant (setting [5]), 76 to 100%; at KRas G12C mutant (setting [6]), 46 to 75%. The inhibition at 20 µM on Rho-A (setting [7]) and on Rho-A (setting [8]) was 76 to 100% throughout. For the same compound, the “KRas G12D mutant + SOS: % inh.” value at KRas G12D mutant (+ SOS) is “C (C = 46-75% inhibition)”. The “KRas G12D mutant: % inh.” value at KRas G12D mutant (without SOS) is listed as “C (C = 46-75% inhibition)”.

Regarding `CO[C@H]1CC[C@@H](Nc2nc(-c3nccn3C)nc3sc(-c4ccn(C)n4)c(-c4ccccc4)c23)C1` (racemic) [Compound 5, rac-N-((1R,3S)-3-Methoxycyclopentyl)-2-(1-methyl-1H-imidazol-2-yl)-6-(1-methyl-1H-pyrazol-3-yl)-5-phenylthieno[2,3-d]pyrimidin-4-amine], the “Activation of JNK in PANC-1” value with JNK is reported as “Y”. The inhibition at 20 µM at KRas wild type (setting [1]) is 76 to 100%; at KRas wild type (setting [2]), 26 to 45%; on KRas G12D mutant (setting [3]), 46 to 75%; at KRas G12D mutant (setting [4]), 1 to 25%; at KRas G12C mutant (setting [5]) it was 76 to 100%; at KRas G12C mutant (setting [6]), 26 to 45%. Also, the inhibition at 20 µM on Rho-A (setting [7]) is 76 to 100%; at Rho-A (setting [8]) it was 46 to 75%. Moreover, the “KRas G12D mutant + SOS: % inh.” value on KRas G12D mutant (+ SOS) is reported as “C (C = 46-75% inhibition)”. For the same compound, the “KRas G12D mutant: % inh.” value at KRas G12D mutant (without SOS) is “A (A = 1-25% inhibition)”.

For the compound `COC1CCCN(c2nc(-c3nccn3C)nc3sc(-c4ccn(C(C)C)n4)c(C)c23)C1` (racemic) [Compound 14, rac-6-(1-Isopropyl-1H-pyrazol-3-yl)-4-(3-methoxypiperidin-1-yl)-5-methyl-2-(1-methyl-1H-imidazol-2-yl)thieno[2,3-d]pyrimidine], the “Activation of JNK in PANC-1” value with JNK is on record as “Y”. Besides, the inhibition at 20 µM was 76 to 100% at KRas wild type (setting [1]); 0% at KRas wild type (setting [2]); 76 to 100% at KRas G12C mutant (setting [5]); 26 to 45% on KRas G12C mutant (setting [6]); 26 to 45% at Rho-A (setting [8]).

For the origin of these results see patent publication US20240124483A1, “Methods for the Treatment of Fibrotic Disease” (SHY Therapeutics, LLC, priority 2021, published 2024).
